Test results published in the supplement of paper PMC10307832.

Key:
Test in all cases: relative viability (nuclei count vs DMSO), 5 days (fraction); higher = more cells survive
Irinotecan + Bortezomib = compound: CCc1c2c(nc3ccc(OC(=O)N4CCC(N5CCCCC5)CC4)cc13)-c1cc3c(c(=O)n1C2)COC(=O)[C@]3(O)CC [Irinotecan] + CC(C)C[C@H](NC(=O)[C@H](Cc1ccccc1)NC(=O)c1cnccn1)B(O)O [Bortezomib] (partner 0.002 µM)
Outline: (§1)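 Lung cancer cell lines in 1536-well plates got either a single drug or a fixed anchor-drug dose together with five library-drug doses (not always all listed) in √10 steps, by pin tool, on the day after seeding. Nuclei were counted after 5 days, and relative viability is the treated-to-vehicle ratio of nuclei counts. Values are medians of duplicate plates.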

MK-8033 + Foretinib = compound: Cn1cc(-c2cnc3ccc4ccc(CS(=O)(=O)NCc5ccccn5)cc4c(=O)c3c2)cn1 [MK-8033] + COc1cc2c(Oc3ccc(NC(=O)C4(C(=O)Nc5ccc(F)cc5)CC4)cc3F)ccnc2cc1OCCCN1CCOCC1 [Foretinib] (partner 0.25 µM)
Outline: as §1

MK-8033 + Lapatinib = compound: Cn1cc(-c2cnc3ccc4ccc(CS(=O)(=O)NCc5ccccn5)cc4c(=O)c3c2)cn1 [MK-8033] + CS(=O)(=O)CCNCc1ccc(-c2ccc3ncnc(Nc4ccc(OCc5cccc(F)c5)c(Cl)c4)c3c2)o1 [Lapatinib] (partner 2 µM)
Outline: as §1

MK-8033 + Crizotinib = compound: Cn1cc(-c2cnc3ccc4ccc(CS(=O)(=O)NCc5ccccn5)cc4c(=O)c3c2)cn1 [MK-8033] + C[C@@H](Oc1cc(-c2cnn(C3CCNCC3)c2)cnc1N)c1c(Cl)ccc(F)c1Cl [Crizotinib] (partner 1 µM)
Outline: as §1

| Cell Line | relative viability (Irinotecan + Bortezomib; first compound 0.6325 µM) | relative viability (Irinotecan + Bortezomib; first compound 2 µM) | relative viability (Irinotecan + Bortezomib; first compound 6.325 µM) | relative viability (Irinotecan + Bortezomib; first compound 20 µM) | relative viability (MK-8033 + Foretinib; first compound 0.02 µM) | relative viability (MK-8033 + Foretinib; first compound 0.06325 µM) | relative viability (MK-8033 + Foretinib; first compound 0.2 µM) | relative viability (MK-8033 + Foretinib; first compound 0.6325 µM) | relative viability (MK-8033 + Foretinib; first compound 2 µM) | relative viability (MK-8033 + Lapatinib; first compound 0.02 µM) | relative viability (MK-8033 + Lapatinib; first compound 0.06325 µM) | relative viability (MK-8033 + Lapatinib; first compound 0.2 µM) | relative viability (MK-8033 + Lapatinib; first compound 0.6325 µM) | relative viability (MK-8033 + Lapatinib; first compound 2 µM) | relative viability (MK-8033 + Crizotinib; first compound 0.02 µM) | relative viability (MK-8033 + Crizotinib; first compound 0.06325 µM) | relative viability (MK-8033 + Crizotinib; first compound 0.2 µM) | relative viability (MK-8033 + Crizotinib; first compound 0.6325 µM) | relative viability (MK-8033 + Crizotinib; first compound 2 µM) |
| --- | --- | --- | --- | --- | --- | --- | --- | --- | --- | --- | --- | --- | --- | --- | --- | --- | --- | --- | --- |
| EMC-BAC-2 | 0.952 | 0.717 | 0.242 | 0.218 | 0.899 | 0.942 | 0.936 | 1.05 | 0.971 | 0.954 | 0.792 | 0.859 | 0.959 | 0.876 | 0.76 | 0.77 | 0.718 | 0.783 | 0.701 |
| SW 900 | – | – | – | – | 0.732 | 0.813 | 0.665 | 0.88 | 0.79 | – | – | – | – | – | – | – | – | – | – |
| NCI-H1623 | – | – | – | – | 0.904 | 0.729 | 0.889 | 0.812 | 0.943 | – | – | – | – | – | – | – | – | – | – |
| NCI-H647 | 0.76 | 0.462 | 0.227 | 0.103 | 1.09 | 1.15 | 1.02 | 1.17 | 1.1 | 0.892 | 1.02 | 0.798 | 1.09 | 1.05 | 1.03 | 0.891 | 0.959 | 0.919 | 0.928 |
| NCI-H520 | 0.446 | 0.477 | 0.252 | 0.138 | 0.992 | 0.777 | 0.762 | 0.844 | 0.556 | 0.959 | 0.853 | 0.784 | 0.867 | 0.79 | 0.797 | 0.678 | 0.663 | 0.59 | 0.78 |
| IA-LM | 0.722 | 0.355 | 0.197 | 0.0773 | 0.989 | 1.03 | 1.17 | 1.15 | 1.12 | 0.682 | 0.636 | 0.66 | 0.633 | 0.773 | 0.739 | 0.667 | 0.948 | 0.667 | 0.899 |
| LC-2-ad | 0.688 | 0.286 | 0.167 | 0.128 | 0.94 | 0.867 | – | 0.981 | 0.944 | 1.09 | 0.915 | 0.877 | 1.11 | 0.806 | 0.423 | 0.347 | 0.393 | 0.447 | 0.445 |
| EKVX | 1.08 | 0.772 | 0.394 | 0.193 | 0.849 | 0.702 | 0.79 | 0.48 | 0.968 | 0.193 | 0.195 | 0.216 | 0.207 | 0.255 | 0.966 | 0.735 | 0.799 | 0.908 | 0.601 |
| NCI-H2228 | 0.689 | 0.685 | 0.514 | 0.343 | 0.96 | 0.806 | 0.673 | 0.721 | 0.749 | 1.34 | 1.08 | 0.848 | 1 | 0.98 | 0.373 | 0.372 | 0.508 | 0.387 | 0.362 |
| NCI-H596 | 0.867 | 1.09 | 0.709 | 0.79 | 0.763 | 0.733 | 0.957 | 0.477 | 0.886 | 1.12 | 0.977 | 1.05 | 1.02 | 1.17 | 0.913 | 0.941 | 0.921 | 0.991 | 1.01 |
| NCI-H322M | 1.34 | 0.859 | 0.564 | 0.347 | 0.918 | 0.868 | 0.955 | 1.03 | 0.965 | 0.605 | 0.508 | 0.531 | 0.575 | 0.602 | 0.855 | 0.778 | 0.835 | 0.939 | 0.954 |
| NCI-H358 | – | – | – | – | 0.801 | 0.511 | 0.72 | 0.565 | 0.643 | 0.427 | 0.317 | 0.44 | 0.42 | 0.456 | 0.493 | 0.503 | 0.595 | 0.434 | 0.508 |
| NCI-H1395 | – | – | – | – | 0.989 | 0.855 | 0.939 | 0.98 | 0.994 | 1.1 | 0.958 | 0.858 | 0.931 | 1.35 | – | – | – | – | – |
| ChaGo-K-1 | – | 1.05 | 0.46 | 0.379 | 0.891 | 0.834 | 1.05 | 0.967 | 0.628 | – | – | – | – | – | 1.11 | 1.02 | 1.11 | 1.1 | 0.726 |
| NCI-H1792 | 0.955 | 1.17 | 0.486 | 0.192 | – | – | – | – | – | 1.06 | 0.87 | 0.863 | 0.917 | 0.976 | 1.02 | 0.959 | 0.982 | 0.828 | 1.03 |
| NCI-H2342 | – | – | – | – | 1.04 | 1.08 | 0.976 | 0.947 | 1.07 | – | – | – | – | – | – | – | – | – | – |
| NCI-H2170 | – | – | – | – | 1.03 | 0.966 | 0.959 | 1.06 | 1.09 | 0.272 | 0.263 | 0.254 | 0.311 | 0.275 | 1.08 | 1.18 | 1.05 | 1.18 | 1.18 |
| HCC-44 | 0.74 | 0.752 | 0.229 | 0.351 | – | – | – | – | – | 1.02 | 1.02 | 0.943 | 0.999 | 1 | 0.808 | 0.732 | 0.755 | 0.746 | 0.756 |
| NCI-H1793 | – | – | – | – | 0.696 | 0.515 | 0.615 | 0.574 | 0.784 | 0.793 | – | 0.492 | 0.783 | 0.495 | – | – | – | – | – |
| LK-2 | – | – | – | – | 1.05 | – | 1.13 | 1.42 | 1.08 | 0.968 | 0.807 | 0.963 | 1.1 | 0.807 | 0.228 | 0.226 | 0.244 | 0.23 | 0.25 |
| NCI-H441 | 0.413 | 0.378 | 0.435 | 0.358 | 0.842 | 1.02 | 0.967 | 0.968 | 0.896 | – | – | – | – | – | 0.753 | 0.646 | 0.681 | 0.778 | 0.691 |
| NCI-H1944 | – | – | – | – | 0.88 | 0.773 | 0.852 | 0.962 | 0.927 | 0.931 | – | 0.808 | 0.825 | 0.791 | 1.12 | – | 1.02 | 1.06 | 1.11 |
